From article PMC9218685, “Legume Plant Peptides as Sources of Novel Antimicrobial Molecules Against Human Pathogens” (Frontiers in Molecular Biosciences, 2022)
In brackets after ≈: the same amount, converted by molar mass. Ends that are not written are not given here. Peptide text beside a SMILES is read from it.

Experiments:
Format in all cases: cell-based
[1] = tested on: Acinetobacter baumannii (ATCC 17978); assay: microbe, parasite or virus in culture; settings: for Activity against A. baumannii: 3 h, peptides ≤25 µM; for MBC Acinetobacter baumannii: ATCC 17978, 3 h
Excerpt: (§1) The following pathogenic bacterial strains were used: The Gram-positive Enterococcus faecalis (ATCC 29212), Staphylococcus aureus (HNCMO112011), Listeria monocytogenes (ATCC 19111) and the Gram-negative Pseudomonas aeruginosa (ATCC 27853), Escherichia coli (ATCC 8739), Salmonella enterica (ATCC 13076), Klebsiella pneumoniae (NCTC 13440), Acinetobacter baumannii (ATCC 17978) obtained from the ATCC (United States) and NCTC (National Collection of Type Cultures–England). For the antifungal experiment the Candida albicans W01 strain ([Ördögh et al., 2014]) was used. Antimicrobial activities of peptides against ∼10^7 log phase bacteria were tested in Potassium-Phosphate Buffer (PPB, pH 7.4) as described by [Jenei et al. (2020)] while anti-Candida assays were done according to [Szerencsés et al. (2021)]. The two-fold dilution series of peptides ranged from 25 μM to 0.125 μM, while that of the antibiotics ampicillin (Merck) and miconazole (Duchefa Biochemie) from […] to 0.1 μM. The lowest concentration of the antimicrobial agents, which completely eliminated viable bacteria or C. albicans were considered as the minimal bactericidal concentration (MBC) and minimal fungicidal concentration (MFC).
(§2) The minimal bactericidal concentrations (MBCs) were determined after 3 h of treatment of ∼10^7 log phase bacteria with 2-fold serial dilution of peptides from 25 µM to 0.8 µM. Only 25 of the 50 cationic M. truncatula peptides had activity at ≤25 µM (Supplementary Table S1). […] Three peptides were only active against two bacterial strains; NCR649 against L. monocytogenes and A. baumannii, NCR281 against L. monocytogenes and P. aeruginosa and NCR350 against A. baumannii and P. aeruginosa. […] None of the anionic NCR peptides affected the survival of the tested bacterial strains.

[2] = tested on: Pseudomonas aeruginosa (ATCC 27853); settings: for MBC Pseudomonas aeruginosa: ATCC 27853, 3 h
Excerpt: as §1, §2

[3] = tested on: E. coli, S. enteritidis, P. aeruginosa, L. monocytogenes, S. aureus, E. faecalis, K. pneumoniae and A. baumannii; assay: Antimicrobial activity assay, spectrum over the eight tested pathogenic bacteria; settings: 3 h treatment of ~10^7 log phase bacteria, peptides 25 to 0.8 µM; active = MBC ≤25 µM
Excerpt: as §1
We investigated the antimicrobial activity of 78 NCR peptides from M. truncatula and 12 NCRs from other IRLC legumes as well as their shorter derivatives against E. coli, S. enteritidis, P. aeruginosa, L. monocytogenes, S. aureus, E. faecalis, K. pneumoniae and A. baumannii (Supplementary Table S1). In the selection of the M. truncatula peptides, we considered their symbiotic expression levels but also their physicochemical properties. The antimicrobial activity of NCRs has so far been attributed to cationic peptides, with the exception of one anionic peptide. To investigate whether other anionic NCRs are antimicrobial, in addition to the cationic peptides, neutral and anionic NCRs were also included covering a broad range of peptides with different net charges (NC: from 7.8 to −10.2) and isoelectric points (pI: from 10.69 to 2.95). 50 peptides had positive net charge and pI > 7.0, while 28 peptides had negative net charge and pI < 7.0 (Supplementary Table S1A). Of the other legumes, only cationic NCR peptides were studied (Supplementary Table S1B).
as §2

| Compound | Activity against A. baumannii ([1]; ~10^7 log phase bacteria) | MBC Acinetobacter baumannii [1] [µM] | MBC Pseudomonas aeruginosa [2] [µM] | further results |
| --- | --- | --- | --- | --- |
| CC1(C)S[C@@H]2[C@H](NC(=O)[C@H](N)c3ccccc3)C(=O)N2[C@H]1C(=O)O [Ampicillin, reference compound] | – | – | – | MBC ([1]; Acinetobacter baumannii, ATCC17978, ~10^7 log phase bacteria, Potassium-Phosphate Buffer pH 7.4, 3 h treatment, two-fold dilution series, lowest concentration completely eliminating viable bacteria, read-out: MBC, minimal bactericidal concentration against A. baumannii): 10200 µM (≈ 3580 µg/mL) |
| CC[C@H](C)[C@H](NC(=O)[C@H](Cc1ccc(O)cc1)NC(=O)[C@H](CC(N)=O)NC(=O)[C@H](CCCNC(=N)N)NC(=O)[C@@H](NC(=O)[C@H](CCC(N)=O)NC(=O)[C@H](CCCNC(=N)N)NC(=O)[C@H](CS)NC(=O)[C@H](CC(=O)O)NC(=O)[C@H](CCCCN)NC(=O)[C@H](CC(N)=O)NC(=O)[C@@H](NC(=O)[C@@H](NC(=O)[C@H](CS)NC(=O)[C@H](CC(N)=O)NC(=O)[C@H](CCCNC(=N)N)NC(=O)[C@H](CO)NC(=O)[C@@H](NC(=O)[C@@H]1CCCN1C(=O)[C@H](CC(C)C)NC(=O)[C@@H](N)Cc1ccccc1)[C@@H](C)O)[C@@H](C)CC)[C@@H](C)O)C(C)C)C(=O)N[C@@H](C)C(=O)N[C@@H](CCCNC(=N)N)C(=O)N[C@@H](CS)C(=O)N[C@@H](CCCNC(=N)N)C(=O)N[C@@H](CCCCN)C(=O)NCC(=O)N[C@@H](CCC(N)=O)C(=O)N[C@@H](CS)C(=O)N[C@@H](CC(C)C)C(=O)N[C@@H](CCC(N)=O)C(=O)N[C@@H](CO)C(=O)N1CCC[C@H]1C(=O)N[C@H](C(=O)N[C@@H](CCCNC(=N)N)C(=O)O)C(C)C [NCR030] (H-FLPTSRNCITNKDCRQVRNYIARCRKGQCLQSPVR-OH; N-terminus assumed) | only against A. baumannii | 3.125 (≈ 12.9 µg/mL) | – | – |
| CC[C@H](C)[C@H](NC(=O)[C@H](Cc1ccccc1)NC(=O)[C@@H](NC(=O)[C@H](CCCCN)NC(=O)[C@H](CC(=O)O)NC(=O)[C@@H]1CCCN1C(=O)[C@@H](N)Cc1ccccc1)[C@@H](C)CC)C(=O)NCC(=O)N[C@@H](CC(=O)O)C(=O)N[C@@H](CS)C(=O)N[C@@H](CCCCN)C(=O)N[C@H](C(=O)N[C@@H](CC(=O)O)C(=O)N[C@@H](CCCCN)C(=O)N[C@@H](CC(=O)O)C(=O)N[C@@H](CS)C(=O)N[C@@H](CCCCN)C(=O)N1CCC[C@H]1C(=O)N[C@@H](CCCCN)C(=O)N[C@@H](CCCNC(=N)N)C(=O)NCC(=O)N[C@H](C(=O)N[C@@H](CC(N)=O)C(=O)N[C@@H](Cc1ccccc1)C(=O)N[C@@H](CCCNC(=N)N)C(=O)N[C@@H](CS)C(=O)N[C@@H](CCCNC(=N)N)C(=O)N[C@@H](CCCCN)C(=O)NCC(=O)N[C@@H](CCCCN)C(=O)N[C@@H](CS)C(=O)N[C@@H](Cc1ccc(O)cc1)C(=O)N1CCC[C@H]1C(=O)N[C@@H](CCCNC(=N)N)C(=O)O)C(C)C)[C@@H](C)O [NCR032] (H-FPDKIFIGDCKTDKDCKPKRGVNFRCRKGKCYPR-OH; N-terminus assumed) | only against A. baumannii | 3.125 (≈ 12.6 µg/mL) | – | – |
| CC[C@H](C)[C@H](NC(=O)[C@H](Cc1ccc(O)cc1)NC(=O)[C@H](CC(N)=O)NC(=O)[C@H](CCCCN)NC(=O)[C@@H](NC(=O)[C@H](CO)NC(=O)[C@@H]1CCCN1C(=O)[C@H](CS)NC(=O)[C@H](CC(=O)O)NC(=O)[C@H](CCCCN)NC(=O)[C@H](CC(=O)O)NC(=O)[C@@H](NC(=O)[C@@H](NC(=O)[C@H](CS)NC(=O)[C@@H](NC(=O)[C@H](CCCNC(=N)N)NC(=O)[C@@H](NC(=O)[C@@H](NC(=O)[C@@H]1CCCN1C(=O)[C@H](CC(C)C)NC(=O)[C@H](Cc1ccc(O)cc1)NC(=O)[C@@H](N)[C@@H](C)O)[C@@H](C)O)[C@@H](C)O)[C@@H](C)CC)[C@@H](C)CC)[C@@H](C)O)C(C)C)C(=O)NCC(=O)N[C@@H](CCCNC(=N)N)C(=O)N[C@@H](CS)C(=O)N[C@@H](CCCNC(=N)N)C(=O)N[C@@H](CCCCN)C(=O)NCC(=O)N[C@@H](Cc1ccc(O)cc1)C(=O)N[C@@H](CS)C(=O)N[C@@H](CCC(N)=O)C(=O)N[C@@H](C)C(=O)N[C@@H](CO)C(=O)N[C@@H](CCCCN)C(=O)N[C@@H](CC(C)C)C(=O)N[C@@H](CCCNC(=N)N)C(=O)O [NCR042] (H-TYLPTTRICITDKDCPSVKNYIGRCRKGYCQASKLR-OH; N-terminus assumed) | – | – | 25 (≈ 104 µg/mL) | – |
| CC[C@H](C)[C@H](NC(=O)[C@H](CCSC)NC(=O)[C@H](CCCNC(=N)N)NC(=O)[C@H](CCCNC(=N)N)NC(=O)CNC(=O)[C@@H]1CCCN1C(=O)[C@H](CC(C)C)NC(=O)[C@H](CS)NC(=O)[C@H](Cc1ccc(O)cc1)NC(=O)[C@H](CCCCN)NC(=O)[C@@H](NC(=O)[C@@H]1CCCN1C(=O)[C@H](CO)NC(=O)[C@H](CS)NC(=O)[C@H](CC(=O)O)NC(=O)[C@H](CO)NC(=O)[C@@H](NC(=O)[C@H](CCCCN)NC(=O)[C@@H](NC(=O)[C@H](CS)NC(=O)[C@H](CCC(=O)O)NC(=O)[C@H](CC(=O)O)NC(=O)[C@@H](N)CO)C(C)C)C(C)C)[C@@H](C)O)C(=O)N[C@@H](CS)C(=O)N[C@@H](CO)C(=O)N[C@@H](CCCCN)C(=O)NCC(=O)N[C@@H](CCCCN)C(=O)N[C@@H](CS)C(=O)N[C@@H](CCCCN)C(=O)N[C@@H](CS)C(=O)N[C@@H](CC(C)C)C(=O)N[C@@H](CCCNC(=N)N)C(=O)N[C@@H](CC(N)=O)C(=O)N[C@@H](CCSC)C(=O)N[C@@H](Cc1ccccc1)C(=O)N[C@H](C(=O)N1CCC[C@H]1C(=O)N[C@H](C(=O)N1CCC[C@H]1C(=O)O)[C@@H](C)CC)[C@@H](C)CC [NCR135] (H-SDECVKVSDCSPTKYCLPGRRMICSKGKCKCLRNMFIPIP-OH; N-terminus assumed) | – | – | – | Antibacterial spectrum over the eight tested bacterial strains [3]: against three strains |
| CC[C@H](C)[C@H](NC(=O)[C@H](CC(N)=O)NC(=O)[C@H](Cc1c[nH]cn1)NC(=O)[C@@H]1CCCN1C(=O)[C@@H]1CCCN1C(=O)[C@H](CCSC)NC(=O)[C@H](CCCNC(=N)N)NC(=O)[C@@H]1CCCN1C(=O)[C@H](CS)NC(=O)[C@H](CC(=O)O)NC(=O)[C@H](CCCCN)NC(=O)[C@H](CC(=O)O)NC(=O)[C@@H](NC(=O)[C@H](CC(C)C)NC(=O)[C@H](CS)NC(=O)[C@@H]1CCCN1C(=O)[C@H](CCCNC(=N)N)NC(=O)[C@H](CC(C)C)NC(=O)[C@@H](NC(=O)[C@H](CCSC)NC(=O)CNC(=O)[C@@H](N)Cc1ccccc1)[C@@H](C)O)[C@@H](C)O)C(=O)N[C@@H](CCCCN)C(=O)N[C@@H](CS)C(=O)N[C@@H](CCCNC(=N)N)C(=O)N[C@@H](CCCCN)C(=O)NCC(=O)N[C@@H](Cc1c[nH]cn1)C(=O)N[C@@H](CS)C(=O)N[C@H](C(=O)N1CCC[C@H]1C(=O)N[C@H](C(=O)NCC(=O)N[C@@H](CCCCN)C(=O)N1CCC[C@H]1C(=O)N[C@@H](Cc1ccccc1)C(=O)N[C@@H](CCCCN)C(=O)O)[C@@H](C)CC)C(C)C [NCR137] (H-FGMTLRPCLTDKDCPRMPPHNIKCRKGHCVPIGKPFK-OH; N-terminus assumed) | – | 25 (≈ 106 µg/mL) | – | – |
| CC[C@H](C)[C@H](NC(=O)[C@H](CC(N)=O)NC(=O)[C@H](Cc1ccc(O)cc1)NC(=O)[C@H](CCC(N)=O)NC(=O)[C@H](CO)NC(=O)[C@@H](NC(=O)[C@H](CCCCN)NC(=O)[C@@H]1CCCN1C(=O)[C@H](CS)NC(=O)[C@H](CC(=O)O)NC(=O)[C@H](CCCCN)NC(=O)[C@H](CC(=O)O)NC(=O)[C@@H](NC(=O)[C@@H](NC(=O)[C@H](CS)NC(=O)[C@@H]1CCCN1C(=O)CNC(=O)[C@H](CO)NC(=O)[C@H](CC(N)=O)NC(=O)[C@@H](NC(=O)[C@H](Cc1ccc(O)cc1)NC(=O)[C@@H]1CCCN1C(=O)[C@@H](NC(=O)[C@H](CO)NC(=O)[C@H](CC(=O)O)NC(=O)[C@H](Cc1ccc(O)cc1)NC(=O)[C@@H](NC(=O)[C@@H](N)CO)C(C)C)[C@@H](C)CC)C(C)C)C(C)C)[C@@H](C)O)C(C)C)C(=O)N[C@@H](CCCNC(=N)N)C(=O)N[C@@H](CS)C(=O)N[C@@H](CCCNC(=N)N)C(=O)N[C@@H](CCCCN)C(=O)NCC(=O)N[C@@H](CCC(N)=O)C(=O)N[C@@H](CS)C(=O)N[C@@H](C)C(=O)N[C@@H](CCCNC(=N)N)C(=O)N[C@H](C(=O)N[C@@H](CCCNC(=N)N)C(=O)N[C@H](C(=O)O)C(C)C)[C@@H](C)CC [NCR361] (H-SVYDSIPYVNSGPCVTDKDCPKVSQYNIRCRKGQCARIRV-OH; N-terminus assumed) | – | – | 25 (≈ 113 µg/mL) | – |
| VYDSKYFQIASPCVNDKDCPQFKNNNVRCRRGFCVNSGGATQKCLGCPSLK-OH (cysteines drawn unpaired) [NCR350] | active | 12.5 | 25 | Activity against P. aeruginosa ([2]; 3 h, ~10^7 log phase bacteria, peptides ≤25 µM): active |
